Laboratory results published in the Deep4Chem optical property database.

Experiment: solvent given as SMILES

CCC1=C(C)C2C(c3ccc(-c4ccc(-c5nc6c7ccccc7c7ccccc7c6n5-c5ccc(C(C)(C)C)cc5)cc4)cc3)c3c(C)c(CC)c(C)n3[B-](F)(F)[N+]2=C1C (stereo unspecified)
absorption maximum (in ClC(Cl)Cl): 526 nm

COc1ccc(-c2nc(-c3cc([N+](=O)[O-])ccc3O)[nH]c2-c2ccc(OC)cc2)cc1
absorption maximum (in CO): 260 nm

Nc1cccc2cc3ccccc3cc12
absorption maximum (in C1CCCCC1): 384.17 nm

COc1ccccc1-c1cc2c(o1)=CC1=Cc3cc4oc(-c5ccccc5OC)cc4n3[B-](F)(F)[N+]=21
absorption maximum (in ClC(Cl)Cl): 671 nm

CCC1=C(C)C(=O)n2c1cc1c(CCC(=O)OC)c(C)c(C)n1c2=O
absorption maximum (in CC#N): 420 nm
absorption maximum (in CC(C)=O): 420 nm
absorption maximum (in CO): 426 nm
absorption maximum (in CS(C)=O): 427 nm
absorption maximum (in ClC(Cl)Cl): 429 nm
absorption maximum (in c1ccccc1): 425 nm

O=S(=O)([O-])c1cccc2c(O)cccc12
absorption maximum (in O): 304 nm

CC1=C(C#Cc2ccc(B(c3c(C)cc(C)cc3C)c3c(C)cc(C)cc3C)cc2)C(C)=[N+]2C1=C(c1ccccc1)c1c(C)c(C#Cc3ccc(B(c4c(C)cc(C)cc4C)c4c(C)cc(C)cc4C)cc3)c(C)n1[B-]2(F)F
absorption maximum (in ClCCl): 576 nm

O=C1OC(=O)C2=C1[Se][C@]13C2=C[C@H](c2ccccc21)c1ccccc13
absorption maximum (in ClCCl): 421 nm

CC(=O)O[B-]1(OC(C)=O)OC(/C=C/C=C/c2ccccc2)=CC(/C=C/C=C/c2ccccc2)=[O+]1
absorption maximum (in C1CCOC1): 468 nm
absorption maximum (in CC#N): 472 nm
absorption maximum (in CC(C)=O): 468 nm
absorption maximum (in CS(C)=O): 478 nm
absorption maximum (in Cc1ccccc1): 470 nm
absorption maximum (in ClC(Cl)Cl): 474 nm
absorption maximum (in ClCCl): 474 nm

Cc1ccc2nc3cc4c5c(cccc5c3nc2c1)C(c1ccccc1)=C(c1ccccc1)O4
absorption maximum (in ClCCl): 491 nm

NC(=O)Cc1cccc2ccccc12
absorption maximum (in C1COCCO1): 283 nm
absorption maximum (in CC#N): 282 nm
absorption maximum (in CCO): 282 nm
absorption maximum (in ClC(Cl)Cl): 283 nm
absorption maximum (in O): 280 nm
absorption maximum (in OCCO): 283 nm
absorption maximum (in [2H]O[2H]): 280 nm

CN(C)c1ccc2c(c1)C(=O)NC2=O
absorption maximum (in C1CCOC1): 377 nm
absorption maximum (in C1COCCO1): 378 nm
absorption maximum (in CC#N): 388 nm
absorption maximum (in CC(C)(C)O): 387 nm
absorption maximum (in CC(C)=O): 382 nm
absorption maximum (in CC(C)O): 389 nm
absorption maximum (in CCOCC): 371 nm
absorption maximum (in CO): 396 nm
absorption maximum (in O): 408 nm

CCCCCCCCC1(CCCCCCCC)c2cc(-c3ccc(C(F)(F)F)cc3)ccc2-c2ccc(N(c3ccc(-n4c5ccccc5c5ccccc54)cc3)c3ccc4c(c3)C(CCCCCCCC)(CCCCCCCC)c3cc(-c5ccc(C(F)(F)F)cc5)ccc3-4)cc21
absorption maximum (in C1CCOC1): 375 nm
absorption maximum (in C1COCCO1): 374 nm
absorption maximum (in CC#N): 370 nm
absorption maximum (in CC(C)=O): 371 nm
absorption maximum (in CCCCCC): 380 nm
absorption maximum (in CCCCOCCCC): 379 nm
absorption maximum (in CCN(CC)CC): 376 nm
absorption maximum (in CCOC(C)=O): 372 nm
absorption maximum (in CCOCC): 374 nm
absorption maximum (in CN(C)C=O): 373 nm
absorption maximum (in CS(C)=O): 371 nm
absorption maximum (in Cc1ccccc1): 379 nm
absorption maximum (in ClC(Cl)Cl): 382 nm
absorption maximum (in ClCCl): 378 nm
absorption maximum (in c1ccccc1): 378 nm

CCCCCCc1ccc(-n2c3c(c4c2c2c(n4-c4ccc(CCCCCC)cc4)-c4cccc(OC)c4NB2c2ccccc2)B(c2ccccc2)Nc2c(OC)cccc2-3)cc1
absorption maximum (in Cc1ccccc1): 382 nm

O=c1[nH]c(=O)n([C@@H]2O[C@H](CO)[C@@H](O)[C@H]2O)cc1-c1cc2ccccc2s1
absorption maximum (in C1COCCO1): 322 nm
absorption maximum (in CC#N): 321 nm
absorption maximum (in CO): 321 nm
absorption maximum (in O): 318 nm

CC(C)(C)c1ccc(-c2cc3cc4c(cc(-c5ccc(C(C)(C)C)cc5)p4-c4ccccc4)cc3p2-c2ccccc2)cc1 (stereo unspecified)
absorption maximum (in C1CCOC1): 396 nm

F[B-]1(F)n2c(c3cccc4cccc2c43)=Nc2cccc(Cl)[n+]21
absorption maximum (in C1CCOC1): 476 nm
absorption maximum (in CC#N): 470 nm
absorption maximum (in CCCCCC): 481 nm
absorption maximum (in Cc1ccccc1): 481 nm
absorption maximum (in ClCCl): 447 nm

CC1=CC(C)=[N+]2C1=C(c1ccc(Br)cc1)c1c(C)cc(/C=C/c3ccc[nH]3)n1[B-]2(F)F
absorption maximum (in ClCCl): 590 nm

CC(C)(C)c1ccc(C2=C(c3ccc(-n4c5ccccc5c5ccccc54)cc3)S(=O)(=O)c3c2sc(-c2ccc(-n4c5ccccc5c5ccccc54)cc2)c3-c2ccc(C(C)(C)C)cc2)cc1
absorption maximum (in C1CCOC1): 419 nm

Cc1cc(C)c(C2=C3C=c4c(c5ccc(C(C)(C)C)cc5c5cc(C(C)(C)C)ccc45)=[N+]3[B-](F)(F)n3c2cc2c4ccc(C(C)(C)C)cc4c4cc(C(C)(C)C)ccc4c23)c(C)c1
absorption maximum (in C1CCCCC1): 693 nm
absorption maximum (in C1CCOC1): 692 nm
absorption maximum (in CC#N): 686 nm
absorption maximum (in Cc1ccccc1): 698 nm
absorption maximum (in ClCCl): 693 nm

Fc1cc(-c2ccc(-c3nc4ccccc4[nH]3)cc2)ccc1-c1ccc(-c2nc3ccccc3[nH]2)cc1
absorption maximum (in CN(C)C=O): 343 nm

O=C1c2cccc3c(NCc4ccccn4)c4ccccc4c(c23)C(=O)N1Cc1ccccn1
absorption maximum (in C1CCOC1): 520 nm
absorption maximum (in CCCCCC): 497 nm
absorption maximum (in CCO): 533 nm
absorption maximum (in Cc1ccccc1): 517 nm
absorption maximum (in ClCCl): 527 nm
